Experimental data published in ChEMBL document CHEMBL4002613, “Shape-based virtual screening, synthesis and evaluation of novel pyrrolone derivatives as antiviral agents against HCV” (Bioorg Med Chem Lett, 2017).

Key:
Hepatitis C virus = test: Antiviral activity against Hepatitis C virus genotype 1b infected in human HuH5.2 cells after 72 hrs by luciferase reporter gene assay; assay type: functional, cell-based, Hepacivirus hominis
Huh-5-2 = test: (§1) Cytotoxicity against human HuH5.2 cells assessed as anti-metabolic effect after 72 hrs by MTT assay; assay type: ADME, cell-based; conditions: huh-5-2, 72 h, 72 h
[1] = Selectivity index, ratio of CC50 for human HuH5.2 cells to EC50 for Hepatitis C virus genotype 1b infected in human HuH5.2 cells; assay type: toxicity, cell-based; conditions: for selectivity ratio: HuH5.2 cells, read-out: Ratio CC50/EC50
[2] = Inhibition of Hepatitis C virus genotype 1b NS3 helicase unwinding activity using fluorescent DNA substrate by molecular beacon assay; parameters: species or system Hepatitis C virus subtype 1b
[3] = as §1; assay type: ADME, cell-based, Huh-5-2; conditions: HuH5.2 (Huh-5-2) cells
[4] = Inhibition of Hepatitis C virus genotype 1b Con1 NS3 helicase ATP hydrolysis activity using ATP as substrate in presence of poly U RNA; parameters: species or system Hepatitis C virus (isolate Con1)
[5] = Hepatitis C virus, genotype 1b, Huh-5-2, 72 h

**Q.** Which EC50 (Hepatitis C virus) does the source give for `CCOC(=O)c1ccc(/C=C2\C=C(c3ccccc3)N(c3ccc(C)cc3Br)C2=O)cc1` (stereo in doubt; form 2) here?
**A.** 20.3 µM

**Q.** And the EC90 (Hepatitis C virus)?
**A.** 61.7 µM

**Q.** What about the CC50 (Huh-5-2) of the same molecule?
**A.** > 205 µM

**Q.** And the “Ratio CC50/EC50” value [1]?
**A.** > 10

**Q.** What about the IC50 [2] of the same molecule?
**A.** > 1000 µM

**Q.** For `CN1CCN(CC2=C(O)C(=O)N(CCc3ccccc3)C3C=CC=CN23)CC1` (configuration not stated), which EC50 (Hepatitis C virus; [5]) is on record?
**A.** 235 µM

**Q.** What about the EC90 (Hepatitis C virus; [5]) of the same molecule?
**A.** > 264 µM

**Q.** And the CC50 at 72 h [3]?
**A.** > 264 µM

**Q.** Which EC90 (Hepatitis C virus) does the source give for `CCOC(=O)c1ccc(/C=C2\C=C(c3ccccc3)N(c3ccc(C)cc3Br)C2=O)cc1` (stereo in doubt; form 1) here?
**A.** 149 µM

**Q.** And the EC50 (Hepatitis C virus; [5])?
**A.** 38 to 38.3 µM

**Q.** And the CC50 at 72 h [3]?
**A.** 204 to 205 µM

**Q.** For `O=C(O)C1=CC(=C(c2ccc(O)c(C(=O)O)c2)c2ccc(O)c(C(=O)O)c2)C=CC1=O` [AURINTRICARBOXYLIC ACID], which IC50 [2] is on record?
**A.** 0.3 µM

**Q.** Which EC50 (Hepatitis C virus; [5]) does the source give for `Oc1c(CN2CCOCC2)cc(CN2CCOCC2)cc1CN1CCOCC1` here?
**A.** > 255 µM

**Q.** What about the EC90 (Hepatitis C virus; [5]) of the same molecule?
**A.** > 255 µM

**Q.** And the CC50 at 72 h [3]?
**A.** > 255 µM

**Q.** With `N=c1c(S(=O)(=O)c2ccc(Cl)cc2)cc2c(=O)n3ccccc3nc2n1CCN1CCOCC1` as the molecule, how does the EC50 (Hepatitis C virus; [5]) read?
**A.** 28 µM

**Q.** What about the EC90 (Hepatitis C virus; [5]) of the same molecule?
**A.** 97.6 µM

**Q.** And the CC50 at 72 h [3]?
**A.** 151 µM

**Q.** And the selectivity ratio [1]?
**A.** 5.4

**Q.** What does the source list for `CCOC(=O)c1ccc(/C=C2/C=C(c3ccccc3)N(c3ccccc3)C2=O)cc1`?
**A.** EC50 (Hepatitis C virus; [5]): 27.2 µM; EC90 (Hepatitis C virus; [5]): 100 µM; CC50 at 72 h [3]: 112 µM; selectivity ratio [1]: 4; IC50 [2]: > 1000 µM

**Q.** For `COc1ccc(/C=C2/C=C(c3ccccc3)N(c3ccccc3)C2=O)cc1`, which EC50 (Hepatitis C virus; [5]) is on record?
**A.** 5.9 µM

**Q.** And the EC90 (Hepatitis C virus; [5])?
**A.** 21.6 µM

**Q.** What about the CC50 at 72 h [3] of the same molecule?
**A.** 97.2 µM

**Q.** What about the selectivity ratio [1] of the same molecule?
**A.** 18

**Q.** What about the IC50 [2] of the same molecule?
**A.** 438 µM

**Q.** Which IC50 [4] does the source give for `Cc1ccc(N2C(=O)/C(=C\c3ccccc3)C=C2c2ccccc2)c(Br)c1` here?
**A.** 620 µM

**Q.** And the EC50 (Hepatitis C virus; [5])?
**A.** 4.1 µM

**Q.** What about the EC90 (Hepatitis C virus; [5]) of the same molecule?
**A.** 12.4 µM

**Q.** What about the CC50 at 72 h [3] of the same molecule?
**A.** > 240 µM

**Q.** And the selectivity ratio [1]?
**A.** > 58

**Q.** And the IC50 [2]?
**A.** > 1000 µM

**Q.** For `CN(C)c1ccc(/C=C2\C(=O)N(c3ncc(-c4ccc(Cl)cc4)s3)N=C2c2ccccc2)cc1`, which EC50 (Hepatitis C virus; [5]) is on record?
**A.** 147 µM

**Q.** And the EC90 (Hepatitis C virus; [5])?
**A.** > 206 µM

**Q.** What about the CC50 at 72 h [3] of the same molecule?
**A.** > 206 µM

**Q.** And the selectivity ratio [1]?
**A.** > 1.4

**Q.** Which EC50 (Hepatitis C virus; [5]) does the source give for `CN1CCN(Cc2c3c(c(CN4CCN(C)CC4)c4c2CCC4)CCC3)CC1` here?
**A.** 7.7 µM

**Q.** What about the CC50 at 72 h [3] of the same molecule?
**A.** 36.9 µM

**Q.** And the selectivity ratio [1]?
**A.** 4.8

**Q.** With `CCOC(=O)c1ccc(/C=C2/C=C(c3ccccc3)N(c3ccc(C)cc3C)C2=O)cc1` as the molecule, how does the EC50 (Hepatitis C virus; [5]) read?
**A.** 0.8 to 43.1 µM

**Q.** What about the CC50 at 72 h [3] of the same molecule?
**A.** 47 to 90.8 µM

**Q.** What about the selectivity ratio [1] of the same molecule?
**A.** 2.1 to 58.8

**Q.** What about the IC50 [2] of the same molecule?
**A.** > 1000 µM

**Q.** For `O=C1/C(=C\c2ccc(-c3ccccc3)cc2)C=C(c2ccccc2)N1c1ccccc1`, which EC50 (Hepatitis C virus; [5]) is on record?
**A.** 16.1 µM

**Q.** What about the EC90 (Hepatitis C virus; [5]) of the same molecule?
**A.** 61.7 µM

**Q.** And the CC50 at 72 h [3]?
**A.** 156 µM

**Q.** And the selectivity ratio [1]?
**A.** 9.7

**Q.** And the IC50 [2]?
**A.** > 1000 µM

**Q.** For `Cc1ccc2nc(-c3ccc4nc(-c5ccc(N)cc5)sc4c3)sc2c1S(=O)(=O)O`, which IC50 [2] is on record?
**A.** 10 µM

**Q.** What does the source list for `O=C1/C(=C\c2ccccc2)C=C(c2ccccc2)N1c1ccccc1`?
**A.** EC50 (Hepatitis C virus; [5]): 4.7 µM; EC90 (Hepatitis C virus; [5]): 14 µM; CC50 at 72 h [3]: 30.3 µM; selectivity ratio [1]: 6.4; IC50 [2]: > 1000 µM

**Q.** Which EC50 (Hepatitis C virus; [5]) does the source give for `CCOC(=O)c1ccc(/C=C2/C=C(c3ccccc3)N(c3ccc(C)cc3)C2=O)cc1` here?
**A.** 22.5 µM

**Q.** What about the EC90 (Hepatitis C virus; [5]) of the same molecule?
**A.** 81.1 µM

**Q.** And the CC50 at 72 h [3]?
**A.** > 244 µM

**Q.** And the selectivity ratio [1]?
**A.** > 11

**Q.** What about the IC50 [2] of the same molecule?
**A.** > 1000 µM

**Q.** With `O=C1/C(=C\c2ccc(Br)cc2)C=C(c2ccccc2)N1c1ccccc1` as the molecule, how does the EC50 (Hepatitis C virus; [5]) read?
**A.** 4.3 µM

**Q.** And the EC90 (Hepatitis C virus; [5])?
**A.** 11.6 µM

**Q.** And the CC50 at 72 h [3]?
**A.** 25.7 µM

**Q.** And the selectivity ratio [1]?
**A.** 6

**Q.** What about the IC50 [2] of the same molecule?
**A.** > 1000 µM
